Measurements reported in publication PMC10069031 (European Journal of Medical Research, 2023).
Where two headings read alike, the source gives them in different places.

Legend:
murine CSF1R = biological target: T1, murine CSF1R (Mus musculus, UniProt P09581); experiment: CSF1R inhibition in RAW264.7 cells (western blot of pCSF1R); format: cell-based; settings: RAW264.7 cells; for IC50: drug 1 h, CSF1 100 ng/mL 2 min, mean ± SD (replicates), M-4, M-5 from pCSF1R bands without relating to total CSF1R; for signal of total CSF1R: western blot
T1 construct: Western blot analysis of total lysates (40 µg/lane) from mouse RAW264.7 cells treated as indicated; endogenous in cells; host or cells: RAW264.7 (murine macrophages)
T1 sequence (P09581 20-977): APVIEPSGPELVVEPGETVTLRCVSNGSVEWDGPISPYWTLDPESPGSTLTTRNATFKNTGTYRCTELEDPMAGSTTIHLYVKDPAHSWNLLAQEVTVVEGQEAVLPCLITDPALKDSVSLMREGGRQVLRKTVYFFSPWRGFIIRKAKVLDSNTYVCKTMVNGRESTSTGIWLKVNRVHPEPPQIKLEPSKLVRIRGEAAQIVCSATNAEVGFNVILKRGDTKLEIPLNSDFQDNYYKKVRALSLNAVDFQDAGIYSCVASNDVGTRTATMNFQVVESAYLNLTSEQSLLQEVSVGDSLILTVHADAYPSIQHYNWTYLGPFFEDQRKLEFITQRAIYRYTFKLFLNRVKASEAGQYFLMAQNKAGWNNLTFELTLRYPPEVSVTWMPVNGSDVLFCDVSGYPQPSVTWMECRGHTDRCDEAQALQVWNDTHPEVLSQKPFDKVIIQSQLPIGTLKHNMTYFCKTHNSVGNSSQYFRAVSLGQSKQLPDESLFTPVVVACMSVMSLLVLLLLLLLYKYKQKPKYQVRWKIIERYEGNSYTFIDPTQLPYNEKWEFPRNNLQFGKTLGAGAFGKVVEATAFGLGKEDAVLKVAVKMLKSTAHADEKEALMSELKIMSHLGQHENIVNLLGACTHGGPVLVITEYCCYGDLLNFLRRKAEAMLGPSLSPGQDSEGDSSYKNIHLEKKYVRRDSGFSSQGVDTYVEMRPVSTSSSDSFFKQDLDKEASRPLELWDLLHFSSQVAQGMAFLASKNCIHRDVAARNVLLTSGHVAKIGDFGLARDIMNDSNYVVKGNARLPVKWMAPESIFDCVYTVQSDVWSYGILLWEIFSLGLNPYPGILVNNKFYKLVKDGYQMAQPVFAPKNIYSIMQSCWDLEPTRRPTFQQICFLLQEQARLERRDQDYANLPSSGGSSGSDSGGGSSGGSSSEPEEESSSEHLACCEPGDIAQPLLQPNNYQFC
Procedure: (§1) RAW264.7 cells (10^6) were seeded into cell culture dishes 6 cm in diameter and incubated in 4 mL RPMI/10% fetal bovine serum (Biochrom) for 24 h at 37 °C in a humidified 5% CO2 atmosphere. Cells were washed once with phosphate-buffered saline (PBS) and starved in 3 mL RPMI/0.1% bovine serum albumin for another 24 h. Cells were then treated for 1 h at 37 °C with drugs at the indicated final concentrations, with 0.5% DMSO as vehicle control, or left untreated, and finally stimulated for 2 min at 37 °C with 100 ng/mL recombinant mouse CSF1 (R&D Systems) by adding 1 mL prewarmed starving medium containing 400 ng/mL CSF1. Dishes were placed on ice and cells were immediately washed with ice-cold PBS and lysed with 50 µL lysis buffer (50 mM HEPES pH 7.5, 150 mM NaCl, 1.5 mM MgCl2, 10% glycerol, 1% Triton X-100, 0.5% desoxycholate, 0.2% sodium dodecyl sulfate, 1 mM ethylene glycol-bis[β-aminoethyl ether]-N,N,N′,N′-tetraacetic acid, 100 mM NaF, 10 mM Na4P2O7, 1 mM Na3VO4, 1% Phosphatase Inhibitor Cocktail 3 [Sigma-Aldrich], 1 mM phenylmethyl sulfonyl fluoride, Complete Protease Inhibitor Cocktail [Roche CustomBiotech; 1 tablet/10 mL], and 50 U/mL Benzonase [Sigma-Aldrich]). Lysed cells were scraped into Eppendorf tubes, incubated on ice for 20 min, and centrifuged at 4 °C for 10 min at 13,000 rpm; supernatants (lysates) were transferred into new tubes and stored at −80 °C.
(§2) Protein concentrations were determined using Pierce bicinchoninic acid assay (Thermo Fisher Scientific) and 40 µg/lane of total lysate was separated by SDS-PAGE on 4–12% Criterion XT Bis–Tris Gels (Bio-Rad) and subsequently transferred to polyvinylidene difluoride membranes using the Trans Blot Turbo Blotting System (Bio-Rad). For antigen detection, membranes were blocked with PBS Odyssey blocking reagent (LI-COR Biosciences) for 1 h at room temperature (RT). Primary antibodies were incubated overnight at 4 °C and the fluorescent secondary antibodies were incubated for 1 h at RT. After each antibody incubation, blots were washed with PBS with 0.05% Tween 20 (Carl Roth) for 15–30 min at RT. Fluorescent signals were quantitatively captured using the Odyssey DLx Infrared Imaging System (LI-COR Biosciences) and the half-maximal inhibitory concentration (IC50) values were calculated using GraphPad software (version 7 or newer).

ERK1/2 = experiment: Inhibition of ERK activation in CSF1-stimulated RAW264.7 cells (western blot); format: cell-based, mouse; settings: mean ± SD (replicates), read-out: Mean kinase IC50 values: P(T185,202;Y187,204) ERK1/2 [WB]
Procedure: as §1, §2

AKT = experiment: Inhibition of AKT activation in CSF1-stimulated RAW264.7 cells (western blot); format: cell-based, mouse; settings: mean ± SD (replicates), read-out: Mean kinase IC50 values: P(S473)AKT [WB]
Procedure: as §1, §2

VEGFR2 = VEGFR2 (Homo sapiens, UniProt P35968); experiment: Competition binding assay, reference kinase
VEGFR2, sequence (P35968 20-1356, species assumed): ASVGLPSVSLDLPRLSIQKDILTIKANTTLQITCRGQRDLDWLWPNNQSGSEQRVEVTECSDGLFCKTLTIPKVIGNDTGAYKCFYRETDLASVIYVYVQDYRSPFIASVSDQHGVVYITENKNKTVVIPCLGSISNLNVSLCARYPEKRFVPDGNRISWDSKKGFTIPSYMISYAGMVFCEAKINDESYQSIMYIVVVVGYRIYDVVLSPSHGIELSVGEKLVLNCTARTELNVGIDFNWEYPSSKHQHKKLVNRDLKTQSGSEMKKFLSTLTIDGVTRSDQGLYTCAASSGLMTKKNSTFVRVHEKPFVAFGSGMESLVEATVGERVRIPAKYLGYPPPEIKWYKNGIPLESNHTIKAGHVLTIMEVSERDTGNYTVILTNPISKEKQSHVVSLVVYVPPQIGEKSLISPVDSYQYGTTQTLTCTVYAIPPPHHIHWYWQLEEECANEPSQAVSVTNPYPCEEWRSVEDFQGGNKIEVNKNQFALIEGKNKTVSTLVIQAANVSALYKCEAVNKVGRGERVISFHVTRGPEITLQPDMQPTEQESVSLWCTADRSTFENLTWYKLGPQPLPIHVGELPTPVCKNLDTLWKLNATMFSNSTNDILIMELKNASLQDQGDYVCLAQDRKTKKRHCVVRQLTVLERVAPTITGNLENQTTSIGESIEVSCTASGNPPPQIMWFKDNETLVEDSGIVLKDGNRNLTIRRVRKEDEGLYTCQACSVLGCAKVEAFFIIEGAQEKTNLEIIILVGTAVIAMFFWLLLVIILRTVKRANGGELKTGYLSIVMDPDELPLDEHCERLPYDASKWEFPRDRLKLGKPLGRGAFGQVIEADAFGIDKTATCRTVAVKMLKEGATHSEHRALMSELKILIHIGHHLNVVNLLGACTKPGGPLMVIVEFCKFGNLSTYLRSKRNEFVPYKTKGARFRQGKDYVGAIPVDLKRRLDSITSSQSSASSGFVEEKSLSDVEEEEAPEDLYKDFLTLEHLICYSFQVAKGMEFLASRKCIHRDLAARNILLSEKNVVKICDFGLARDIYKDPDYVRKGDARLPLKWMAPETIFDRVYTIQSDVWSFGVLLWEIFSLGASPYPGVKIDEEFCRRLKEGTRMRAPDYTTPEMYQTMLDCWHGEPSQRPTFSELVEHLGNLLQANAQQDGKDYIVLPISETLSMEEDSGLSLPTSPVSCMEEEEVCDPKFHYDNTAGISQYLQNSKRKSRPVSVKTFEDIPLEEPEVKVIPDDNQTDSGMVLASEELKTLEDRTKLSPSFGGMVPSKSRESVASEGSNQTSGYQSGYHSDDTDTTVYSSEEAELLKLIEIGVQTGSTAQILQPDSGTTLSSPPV

Binding to mouse plasma = format: in vitro ADME
[1] = read-out: Mean kinase IC50 values: P(Y559)CSF1R [WB]
[2] = read-out: Mean kinase IC50 values: P(Y721)CSF1R [WB]

IC50 (murine CSF1R; [1]) [nM]	IC50 (murine CSF1R; [2]) [nM]	IC50 (ERK1/2) [nM]	IC50 (AKT) [nM]	signal of total CSF1R (murine CSF1R)	IC50 (VEGFR2) [nM]	unbound fraction (Binding to mouse plasma) [%]	SMILES
66 ± 17	18 ± 7	239 ± 239	63 ± 37	–	–	–	CNC(=O)c1cc(Oc2ccc(NC(=O)Nc3ccc(Cl)c(C(F)(F)F)c3)c(F)c2)cc[n+]1[O-] [M-2]
273 ± 101	185 ± 29	783 ± 34	276 ± 30	destabilized	37	0.332	NC(=O)c1cc(Oc2ccc(NC(=O)Nc3ccc(Cl)c(C(F)(F)F)c3)c(F)c2)ccn1 [M-4]
19 ± 15	18 ± 14	276 ± 197	93 ± 110	destabilized	–	–	NC(=O)c1cc(Oc2ccc(NC(=O)Nc3ccc(Cl)c(C(F)(F)F)c3)c(F)c2)cc[n+]1[O-] [M-5]
